Measurements from publication PMC3578785, “Improved BM212 MmpL3 Inhibitor Analogue Shows Efficacy in Acute Murine Model of Tuberculosis Infection” (PLoS ONE, 2013).
Values after ≈ are worked out from the molar mass of the structure shown. Like-named read-outs stand apart in the source and are kept apart here.

Assays:
in vitro [1] = assay type: in vitro ADME, mouse; conditions: pH 7.4; for Cli mouse: 0.5 µM; for half-life: mouse microsomes, read-out: t1/2 in mouse microsomes
Procedure: (§1) Protocol S6. Microsomal fraction stability experimental procedure.
(§2) Pooled mouse and human liver microsomes are purchased from Xenotech. Microsomes (final protein concentration 0.5 mg/mL, MgCl2 (final concentration = 5 mM) and test compound (final substrate concentration = 0.5 µM; final DMSO concentration = 0.5%) in 0.1M phosphate buffer pH 7.4 were pre-incubated at 37°C prior to the addition of NADPH (final concentration = 1 mM) to initiate the reaction. The final incubation volume was 600 µL. A control incubation was included for each compound tested where 0.1 M phosphate buffer pH 7.4 is added instead of NADPH (minus NADPH). One control compound was included with each species. All incubations were performed singularly for each test compound. Each compound was incubated for 30 minutes and samples (90 µL) of incubate were taken at 0, 5, 15, 20 and 30 min. The control (minus NADPH) was sampled at 30 min only. The reactions were stopped by the addition of sample to 200 µL Acetonitrile:Methanol 3:1 containing internal standard. The terminated samples were centrifuged at 2.500 rpm for 20 min at 4°C to precipitate the protein.
(§3) Quantitative Analysis: following protein precipitation, the samples were analyzed using specific […]
(§4) Data Analysis: from a plot of ln peak area ratio (compound peak area/internal standard peak area) against time, the gradient of the line was determined. Subsequently, half-life and intrinsic clearance were calculated using the equations below:
(§5) Elimination rate constant (k) = (- gradient)
(§6) Half life (t1/2) (min) = […]
(§7) Intrinsic Clearance (CLint) (mL/min/g protein) = […] where V=Incubation volume mL/g microsomal protein.

HepG2 cells = conditions: human, 48 h
[2] = molecular target: human serum albumin (HSA) (Homo sapiens, UniProt P02768); assay type: in vitro ADME; conditions: human, pH 7.4
Chain of human serum albumin (HSA) (P02768 25-609): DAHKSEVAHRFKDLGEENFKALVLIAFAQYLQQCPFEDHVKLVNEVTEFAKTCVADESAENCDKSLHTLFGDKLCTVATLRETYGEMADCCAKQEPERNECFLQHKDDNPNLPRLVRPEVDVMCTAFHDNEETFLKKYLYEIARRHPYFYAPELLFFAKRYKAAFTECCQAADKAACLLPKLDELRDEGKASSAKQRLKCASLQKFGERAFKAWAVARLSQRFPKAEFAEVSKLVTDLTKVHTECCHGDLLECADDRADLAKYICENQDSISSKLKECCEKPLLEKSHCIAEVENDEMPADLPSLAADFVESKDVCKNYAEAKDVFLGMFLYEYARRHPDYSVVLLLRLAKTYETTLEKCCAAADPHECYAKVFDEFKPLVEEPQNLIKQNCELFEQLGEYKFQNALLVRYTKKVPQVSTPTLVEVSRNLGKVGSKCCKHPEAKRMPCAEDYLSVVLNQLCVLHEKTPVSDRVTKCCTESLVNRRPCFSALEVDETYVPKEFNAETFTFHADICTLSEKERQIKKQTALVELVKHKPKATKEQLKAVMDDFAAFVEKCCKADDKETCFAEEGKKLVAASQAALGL
Procedure: Standard physical chemical property determination methods were used. Please see the Supporting Information for details.
Protocol S4. Determination of compounds binding to human serum albumin (HSA).
The determination of compounds binding to human serum albumin (HSA) was carried out by retention time measurements using immobilized HSA HPLC columns obtained from Chiral Technologies Ltd, France. The column dimensions were 50x3 mm. The mobile phase was 50 mM ammonium acetate buffer pH 7.4 and HPLC grade 2-propanol. HPLC Method: flow rate 1.8 ml/min applying 2.5 min 2-propanol gradient up to 30%. From 2.5 min to 4.5 min the 2-propanol concentration in the mobile phase was kept at 30%. From 4.5 min to 4.6 min, the 2-propanol concentration was decreased to 0% and kept like that until the end of the gradient run which was 6 min. A calibration set of compounds was first analyzed for which plasma protein binding data were available: Warfarin, Nizatidine, Bromazepam, Carbamazepine, Budesonide, Nicardipine, Indomethacine, Piroxicam, Naproxen. The calculation of the HSA binding data expressed as %HSA was carried out as described previously.

in vitro [3] = conditions: plasma, pH 7.4
M. tuberculosis H37Rv = assay: microbe, parasite or virus in culture; assay type: cell-based; conditions: Mycobacterium tuberculosis, aerobic conditions
in vitro [4] = conditions: African green monkey
in vitro [5] = assay type: in vitro ADME, human; conditions: pH 7.4; for Cli human: 0.5 µM; for half-life: human microsomes, read-out: t1/2 in human microsomes
Procedure: as §1, §2, §3, §4, §5, §6, §7

Compound | Cli mouse (in vitro [1]) [mL/min/g] | half-life (in vitro [1]) [min] | Tox50, cytotoxicity in HepG2 cells (HepG2 cells) [µM] | HSA (%) binding [2] [%] | chromatographic logD (physchem; pH 2) | chromatographic logD (physchem; pH 7.4) | chromatographic logD (physchem; pH 10.5) | fraction unbound at 1 µM (in vitro [3]) | MIC (M. tuberculosis H37Rv) [µM] | CC50 at 72 h (in vitro [4]) [µM] | melting point [°C] | Cli human (in vitro [5]) [mL/min/g] | half-life (in vitro [5]) [min]
Cc1c(CN2CCN(C)CC2)cc(-c2ccc(Cl)cc2)n1-c1ccc(Cl)cc1 [Compound 1] | 0.7 ± 0.1 | > 30 | 7.8 | 98.07 | 0.7 | 4.51 | 5.01 | 0.002 | 5 (≈ 2.07 µg/mL) |  |  |  | 
Cc1ccc(-c2cc(CN3CCSCC3)c(C)n2-c2ccc(F)cc2)cc1 [Compound 2] | 7.2 ± 0.2 | 8.2 | 24.01 | 97.91 | 1.31 | 4.54 | 5.08 | < 0.001 | 0.16 to 0.2 (≈ 0.0609 to 0.0761 µg/mL) | 179 |  |  | 
COc1ccc(-c2cc(CN3CCSCC3)c(C)n2-c2ccc(F)cc2)cc1 [Compound 3] | 18.76 | < 5 |  | 96.82 | 1.07 | 3.97 | 4.62 | 0.004 | 0.16 to 0.2 (≈ 0.0634 to 0.0793 µg/mL) | > 302 |  |  | 
CSc1ccc(-c2cc(CN3CCSCC3)c(C)n2-c2ccc(F)cc2)cc1 [Compound 4] | 7.3 ± 0.1 | 10 |  | 98.04 | 1.33 | 4.52 | 5.03 | 0.007 | 0.16 to 0.2 (≈ 0.066 to 0.0825 µg/mL) | 15.2 |  |  | 
Cc1ccc(-c2cc(CN3CCOCC3)c(C)n2-c2ccc(F)cc2)cc1 [Compound 5, 2-Methyl-3-[(morpholin-4-yl)-methyl]-5-[4-(methyl)phenyl]-1-[4-(fluoro)phenyl]-1H-pyrrole] |  | 20.4 | 20.08 | 96.72 | 1.12 | 3.86 | 4.26 | 0.005 | 0.3 (≈ 0.109 µg/mL) | > 351 | 133 to 135 | <0.5 | > 30
COc1ccc(-c2cc(CN3CCOCC3)c(C)n2-c2ccc(F)cc2)cc1 [Compound 6, 2-Methyl-3-[(morpholin-4-yl)-methyl]-5-[4-(methoxy)phenyl]-1-[4-(fluoro)phenyl]-1H-pyrrole] | 4.7 ± 0.1 | 15.9 |  | 95.58 | 0.93 | 3.32 | 3.73 | 0.017 | 0.6 (≈ 0.228 µg/mL) | 58.7 | 169 | 0.5 ± 0 | > 30
CSc1ccc(-c2cc(CN3CCOCC3)c(C)n2-c2ccc(F)cc2)cc1 [Compound 7, 2-Methyl-3-[(morpholin-4-yl)-methyl]-5-[4-(methylthio)phenyl]-1-[4-(fluoro)phenyl]-1H-pyrrole] | 7.30 | 9.27 | 32.9 | 97.00 | 1.13 | 3.82 | 4.24 | 0.004 | 0.6 (≈ 0.238 µg/mL) | 44.3 | 134 | 0.56 | > 30
CCc1ccc(-c2cc(CN3CCOCC3)c(C)n2-c2ccc(F)cc2)cc1 [Compound 8, 2-Methyl-3-[(morpholin-4-yl)-methyl]-5-[4-(ethyl)phenyl]-1-[4-(fluoro)phenyl]-1H-pyrrole] | 5.64 | 12.5 | 19.5 | 97.14 | 1.26 | 4.21 | 4.64 | 0.006 | 0.2 (≈ 0.0757 µg/mL) | 18.9 | 107 | 1.09 | > 30
Cc1ccc(-c2cc(CN3CCOCC3)c(C)n2-c2ccc(Cl)cc2)cc1 [Compound 10, 2-Methyl-3-[(morpholin-4-yl)-methyl]-5-[4-(methyl)phenyl]-1-[4-(chloro)phenyl]-1H-pyrrole] | 2.6 ± 0.1 | 25.7 | 25 | 97.69 | 1.3 | 4.4 | 4.78 | 0.002 | 0.6 (≈ 0.229 µg/mL) | 179 | 130 | <0.5 | > 30
CCc1ccc(-c2cc(CN3CCOCC3)c(C)n2-c2ccc(Cl)cc2)cc1 [Compound 11, 2-Methyl-3-[(morpholin-4-yl)-methyl]-5-[4-(ethyl)phenyl]-1-[4-(chloro)phenyl]-1H-pyrrole] | 2.83 | 25 | 8.8 | 97.74 | 1.42 | 4.77 | 5.16 | < 0.001 | 0.2 (≈ 0.079 µg/mL) | > 256 | 134 | 0.52 | > 30
CCCc1ccc(-c2cc(CN3CCOCC3)c(C)n2-c2ccc(Cl)cc2)cc1 [Compound 12, 2-Methyl-3-[(morpholin-4-yl)-methyl]-5-[4-(propyl)phenyl]-1-[4-(chloro)phenyl]-1H-pyrrole] |  | > 30 | 13.3 | 98.00 | 1.61 | 5.3 | 5.59 | < 0.001 | 2 (≈ 0.818 µg/mL) | > 256 | 113 | <0.5 | > 30
Cc1c(CN2CCOCC2)cc(-c2ccc(C(C)C)cc2)n1-c1ccc(Cl)cc1 [Compound 13, 2-Methyl-3-[(morpholin-4-yl)-methyl]-5-[4-(i-propyl)phenyl]-1-[4-(chloro)phenyl]-1H-pyrrole] |  | > 30 | 10.0 | 97.94 | 1.56 | 5.13 | 5.45 | < 0.001 | 0.6 (≈ 0.245 µg/mL) | 241 | 135 | 0.71 | > 30
Cc1ccc(-n2c(-c3ccc(Cl)cc3)cc(CN3CCOCC3)c2C)cc1 [Compound 14, 2-Methyl-3-[(morpholin-4-yl)-methyl]-5-[4-(chloro)phenyl]-1-[4-(methyl)phenyl]-1H-pyrrole] | 7.41 | 9.69 | 26.0 | 97.62 | 1.28 | 4.53 | 4.94 | < 0.001 | 1.3 (≈ 0.495 µg/mL) | 9.31 | 111 | 0.57 | > 30
CCc1ccc(-n2c(-c3ccc(Cl)cc3)cc(CN3CCOCC3)c2C)cc1 [Compound 15, 2-Methyl-3-[(morpholin-4-yl)-methyl]-5-[4-(chloro)phenyl]-1-[4-(ethyl)phenyl]-1H-pyrrole] | 4.0 ± 0.1 | 18.5 | 17.8 | 98.03 | 1.54 | 5.01 | 5.36 | < 0.001 | 0.6 (≈ 0.237 µg/mL) | 170 | 102 | 0.9 ± 0 | > 30
